Measured values reported in patent publication US5536645A, “Nutritive medium for the culture of microorganism” (priority 1993, dated 1996).
Where two headings read alike, the source gives them in different places.

What was measured:
Format in all cases: cell-based
P. aeruginosa = test: Equivalent MIC of antibiotics in VITEK cards, gram-negative bacteria (Table 3); details: for MIC: Pseudomonas aeruginosa, 12 h, read-out: Equivalent MIC
Method: (§1) With the determination of the sensitivity to antibiotics in mind, a suspension of 0.5 MF (Mac Farland) in physiological water was prepared from bacterial colonies selected in Petri dishes, reading being carried out on an ATB 1550 densitometer marketed by BIOMERIEUX (ATB trade mark). The suspension obtained was respectively diluted to 1/100th in the medium of the invention and Mueller-Hinton medium. VITEK cards (VITEK trade mark) containing different antibiotics at 10 concentrations were filled in vacuo into a VITEK apparatus marketed by BIOMERIEUX-VITEK. The cards were incubated for 12 hours in a VITEK incubator/reader marketed by BIOMERIEUX-VITEK. The growth kinetics were visualized and interpreted and an equivalent MIC was determined (equivalent MIC: equivalent minimum inhibitory concentration, that is to say the smallest concentration for which no bacterial growth is detected by the apparatus).
(§2) IST refers to the medium of the invention and MH signifies Mueller-Hinton medium.
(§3) S, I and R respectively signify "sensitive", "intermediate" and "resistant" with reference to the critical concentrations defined by the NCCLS (National Committee for Clinical Laboratory Standards).

S. marcescens = test: as above; details: for MIC: Serratia marcescens, 12 h, read-out: Equivalent MIC
Method: as §1, §2, §3

K. pneumoniae = test: as above; details: for MIC: Klebsiella pneumoniae, 12 h
Method: as §1, §2, §3

S. epidermidis = test: microbe, parasite or virus in culture; details: for MIC: Staphylococcus epidermidis, 12 h, read-out: Equivalent MIC
Method: as §1, §2
(§4) *A range of concentration, of ratio 2, was tested for each antibiotic in
(§5) each of the abovementioned concentration margins.
as §3

S. aureus = test: microbe, parasite or virus in culture; details: for MIC: Staphylococcus aureus, read-out: Equivalent MIC
Method: as §1, §2, §4, §5, §3

E. faecalis = test: Equivalent MIC of antibiotics in VITEK cards, gram-positive bacteria (Table 4); details: for MIC: Enterococcus faecalis, 12 h
Method: as §1, §2, §4, §5, §3

CCN1CCN(C(=O)N[C@@H](C(=O)N[C@@H]2C(=O)N3[C@@H]2SC(C)(C)[C@@H]3C(=O)O)c2ccccc2)C(=O)C1=O [piperacillin]
NCCLS Category (P. aeruginosa; AP 8, IST medium): S | NCCLS Category (P. aeruginosa; AP 8, MH medium): S | NCCLS Category (P. aeruginosa; AP 13, IST medium): S | NCCLS Category (P. aeruginosa; AP 13, MH medium): S | MIC (P. aeruginosa; AP 8, IST medium): 4 mg/L | MIC (P. aeruginosa; AP 8, MH medium): 4 mg/L | MIC (P. aeruginosa; AP 13, IST medium): 8 to 16 mg/L | MIC (P. aeruginosa; AP 13, MH medium): 16 mg/L | NCCLS Category (S. marcescens; CDC 2021, IST medium): S | NCCLS Category (S. marcescens; CDC 2021, MH medium): S | NCCLS Category (S. marcescens; CDC 2162, IST medium): R | NCCLS Category (S. marcescens; CDC 2162, MH medium): R | MIC (S. marcescens; CDC 2021, IST medium): 2 mg/L | MIC (S. marcescens; CDC 2021, MH medium): 2 mg/L | MIC (S. marcescens; CDC 2162, IST medium): > 256 mg/L | MIC (S. marcescens; CDC 2162, MH medium): > 256 mg/L | NCCLS Category (K. pneumoniae; AP 14, MH medium): R | NCCLS Category (K. pneumoniae; CDC 2174, IST medium): S | NCCLS Category (K. pneumoniae; CDC 2174, MH medium): S | NCCLS Category (K. pneumoniae; CDC 2182, IST medium): S | NCCLS Category (K. pneumoniae; CDC 2182, MH medium): I | MIC (K. pneumoniae; AP 14, IST medium): 64 mg/L | MIC (K. pneumoniae; AP 14, MH medium): 256 mg/L | MIC (K. pneumoniae; CDC 2174, IST medium): 8 mg/L | MIC (K. pneumoniae; CDC 2174, MH medium): 8 mg/L | MIC (K. pneumoniae; CDC 2182, IST medium): 16 mg/L | MIC (K. pneumoniae; CDC 2182, MH medium): 32 mg/L

CN[C@H](CC(C)C)C(=O)N[C@H]1C(=O)N[C@@H](CC(N)=O)C(=O)N[C@H]2C(=O)N[C@H]3C(=O)N[C@H](C(=O)N[C@H](C(=O)O)c4cc(O)cc(O)c4-c4cc3ccc4O)[C@H](O)c3ccc(c(Cl)c3)Oc3cc2cc(c3O[C@@H]2O[C@H](CO)[C@@H](O)[C@H](O)[C@H]2O[C@H]2C[C@](C)(N)[C@H](O)[C@H](C)O2)Oc2ccc(cc2Cl)[C@H]1O [vancomycin]
NCCLS Category (S. epidermidis; CDC 2024, IST medium): S | NCCLS Category (S. epidermidis; CDC 2024, MH medium): S | NCCLS Category (S. epidermidis; CDC 2105, IST medium): S | NCCLS Category (S. epidermidis; CDC 2105, MH medium): S | NCCLS Category (S. epidermidis; CDC 2234, IST medium): S | NCCLS Category (S. epidermidis; CDC 2234, MH medium): S | MIC (S. epidermidis; CDC 2024, IST medium): 4 mg/L | MIC (S. epidermidis; CDC 2024, MH medium): 4 mg/L | MIC (S. epidermidis; CDC 2105, IST medium): 4 mg/L | MIC (S. epidermidis; CDC 2105, MH medium): 2 mg/L | MIC (S. epidermidis; CDC 2234, IST medium): 2 mg/L | MIC (S. epidermidis; CDC 2234, MH medium): 2 mg/L | NCCLS Category (S. aureus; ATCC 29213, IST medium): S | NCCLS Category (S. aureus; ATCC 29213, MH medium): S | NCCLS Category (S. aureus; CDC 2194, IST medium): S | NCCLS Category (S. aureus; CDC 2194, MH medium): S | NCCLS Category (S. aureus; CDC 2215, IST medium): S | NCCLS Category (S. aureus; CDC 2215, MH medium): S | MIC (S. aureus; 12 h, CDC 2194, IST medium): 2 mg/L | MIC (S. aureus; 12 h, CDC 2194, MH medium): 1 mg/L | MIC (S. aureus; 12 h, CDC 2215, IST medium): 2 mg/L | MIC (S. aureus; 12 h, CDC 2215, MH medium): 1 mg/L | MIC (S. aureus; ATCC29213, 12 h, ATCC 29213, IST medium): 2 mg/L | MIC (S. aureus; ATCC29213, 12 h, ATCC 29213, MH medium): 2 mg/L | NCCLS Category (E. faecalis; CDC 2017, IST medium): I | NCCLS Category (E. faecalis; CDC 2017, MH medium): I | NCCLS Category (E. faecalis; CDC 2225, IST medium): S | NCCLS Category (E. faecalis; CDC 2225, MH medium): S | NCCLS Category (E. faecalis; CDC 2230, IST medium): S | NCCLS Category (E. faecalis; CDC 2230, MH medium): S | MIC (E. faecalis; CDC 2017, IST medium): 8 mg/L | MIC (E. faecalis; CDC 2017, MH medium): 16 mg/L | MIC (E. faecalis; CDC 2225, IST medium): 4 mg/L | MIC (E. faecalis; CDC 2225, MH medium): 4 mg/L | MIC (E. faecalis; CDC 2230, IST medium): 1 mg/L | MIC (E. faecalis; CDC 2230, MH medium): 1 to 2 mg/L

gentamicin
Equivalent MIC (P. aeruginosa; CDC 2009, IST medium): 16 to 32 mg/L | NCCLS Category (P. aeruginosa; CDC 2009, IST medium): R | Equivalent MIC (P. aeruginosa; CDC 2009, MH medium): 32 mg/L | NCCLS Category (P. aeruginosa; CDC 2009, MH medium): R | Equivalent MIC (P. aeruginosa; CDC 2239, IST medium): 2 mg/L | NCCLS Category (P. aeruginosa; CDC 2239, IST medium): S | Equivalent MIC (P. aeruginosa; CDC 2239, MH medium): 2 mg/L | NCCLS Category (P. aeruginosa; CDC 2239, MH medium): S | Equivalent MIC (P. aeruginosa; CDC 2257, IST medium): 0.5 to 1 mg/L | NCCLS Category (P. aeruginosa; CDC 2257, IST medium): S | Equivalent MIC (P. aeruginosa; CDC 2257, MH medium): 0.5 mg/L | NCCLS Category (P. aeruginosa; CDC 2257, MH medium): S | Equivalent MIC (K. pneumoniae; CDC 2177, IST medium): 0.5 mg/L | NCCLS Category (K. pneumoniae; CDC 2177, IST medium): S | Equivalent MIC (K. pneumoniae; CDC 2177, MH medium): 0.25 mg/L | NCCLS Category (K. pneumoniae; CDC 2177, MH medium): S | Equivalent MIC (K. pneumoniae; CDC 2249, IST medium): 8 mg/L | NCCLS Category (K. pneumoniae; CDC 2249, IST medium): I | Equivalent MIC (K. pneumoniae; CDC 2249, MH medium): 8 mg/L | NCCLS Category (K. pneumoniae; CDC 2249, MH medium): I | Equivalent MIC (K. pneumoniae; CDC 2279, IST medium): 4 mg/L | NCCLS Category (K. pneumoniae; CDC 2279, IST medium): S | Equivalent MIC (K. pneumoniae; CDC 2279, MH medium): 4 mg/L | NCCLS Category (K. pneumoniae; CDC 2279, MH medium): S
